{"source": "patent US10294221B2", "about": "“1, 3, 4-thiadiazole compounds and their use in treating cancer” (AstraZeneca AB, priority 2014, dated 2019)", "key": {"[1]": {"tested_on": "human NSCLC NCI-H1703 cells xenograft", "experiment": "Mouse Xenograft Model, combination therapy study (NCI-H1703)", "assay_type": "in vivo", "details": "Male Scid mice", "protocol": "Male Scid mice were transplanted s.c. with human NSCLC NCI-H1703 cells (ATCC-CRL-5889) to determine the in-vivo anti-tumour activity of GLS inhibitors. 1×10^7 cells in 50% matrigel (BD Bioscience) were injected s.c. on the left flank of the animals.\n(§1) Animals were randomised into groups of 10-12 when tumours reached a volume of ˜200-300 mm^3 and treatment commenced. […] Tumours were measured twice weekly by calliper and volume of tumours calculated using elliptical formula (π/6×width×width×length). Statistical significance was evaluated using a one tailed, t-test. Taxotere® (Sanofi) was formulated in a physiological saline. Example 2 was formulated in a 1% Polysorbate 80 and pH adjusted with 1M HCL to a final pH concentration of pH3.5. Data is presented as mean tumour volume with calculated mean standard error bars."}, "[2]": {"tested_on": "human NSCLC NCI-H3122 cells xenograft", "experiment": "Mouse Xenograft Model, monotherapy (NCI-H3122)", "assay_type": "in vivo", "details": "Female Harlan Nude mice, 50 mg/kg once daily peroral for 17 days, monotherapy (FIG. 2)", "protocol": "as §1, with “Female Harlan Nude mice were transplanted s.c. with human NSCLC NCI-H3122 cells to determine the in-vivo anti-tumour activity of GLS inhibitors. 5×10^6 cells in 50% matrigel (BD Bioscience) were injected s.c. on the left flank of the animals. Animals” for “Animals”, “10-15” for “10-12”, “t-test.” for “t-test. Taxotere® (Sanofi) was formulated in a physiological saline.”"}}}
{"compound": "CO[C@H](C(=O)Nc1nnc(N[C@@H]2CCN(c3cccnn3)C2)s1)c1ccccc1", "note": "[Example 2(a), (2S)-2-Methoxy-2-phenyl-N-[5-[[(3R)-1-pyridazin-3-ylpyrrolidin-3-yl]amino]-1,3,4-thiadiazol-2-yl]acetamide]", "values": [{"measurement": "Tumour growth (mean tumour volume), NCI-H1703 xenograft, combination with Taxotere", "setting": "[1]; 100 mg/kg once daily peroral for 16 days in combination with once weekly intra-venous Taxotere (FIG. 3)", "value": "slight regression compared to Taxotere® monotherapy treatment"}, {"measurement": "Tumour growth (mean tumour volume), NCI-H1703 xenograft, monotherapy", "setting": "[1]; 100 mg/kg once daily peroral for 16 days, monotherapy (FIG. 3)", "value": "inhibition of growth in-vivo"}, {"measurement": "Tumour growth (mean tumour volume), NCI-H3122 xenograft", "setting": "[2]", "value": "inhibition of growth in-vivo"}]}
